Test results from US10738028B2, “Spiro three-membered ring, spiro five-membered ring peptide deformylase inhibitor and use thereof in antibacteria and anti-tumor” (priority 2016, dated 2020).
Like-named read-outs stand apart in the source and are kept apart here.

Assays:
Assay type in all cases: cell-based
[1] = tested on: methicillin-resistant Staphylococcus epidermidis (MRSE); assay: MIC, two-fold agar dilution (CLSI), clinical isolates
Summary of the method: (§1)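 CLSI two-fold agar dilution; MIC of test samples read per tested strain.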

[2] = tested on: methicillin-resistant Staphylococcus aureus (MRSA); assay: as above
Summary of the method: as §1

[3] = tested on: methicillin-sensitive Staphylococcus aureus (MSSA); assay: as above
Summary of the method: as §1

[4] = tested on: Enterococcus faecalis (EFA); assay: as above
Summary of the method: as §1

[5] = tested on: Moraxella catarrhalis (BCA); assay: as above
Summary of the method: as §1

[6] = tested on: Enterococcus faecium (EFM); assay: as above
Summary of the method: as §1

[7] = tested on: Escherichia coli (including ESBLs, non-ESBLs); assay: as above
Summary of the method: as §1

[8] = tested on: Streptococcus pneoumoniae (SPN); assay: as above
Summary of the method: as §1

[9] = tested on: methicillin-sensitive Staphylococcus epidermidis (MSSE); assay: as above
Summary of the method: as §1

[10] = tested on: HCT-116 colorectal cancer cell line; assay: CCK-8 proliferation inhibition; conditions: Homo sapiens, HCT-116, 72 h, concentration of 30 μM, 72 hours, CCK-8
Summary of the method: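 Proliferation over 72 hours of compound treatment was measured with CCK-8 against a 1‰ DMSO control.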

[11] = tested on: BEL-7402 liver cancer cell line; assay: CCK-8 proliferation inhibition; conditions: Homo sapiens, Bel-7402, 72 h, concentration of 30 μM
Excerpt: (§2) 2. The present invention adopts the CCK-8 method to determine the proliferation inhibition effect of the spiro three-membered ring, spiro five-membered ring peptide deformylase inhibitor as described in Examples 1-80 against colorectal cancer cells, lung cancer cells, gastric cancer cells, liver cancer cells, and the like. […] The compound having the best activity synthesized in Example 64 was further tested for its inhibitory activity against other tumor cells including T cell leukemia, acute myeloid leukemia, cervical cancer, breast cancer, prostate cancer and osteosarcoma, and the like (see Table 7).
(§3) (1) HCT-116 colorectal cancer cell line, A549 lung cancer cell line, MGC-803 gastric cancer cell line, BEL-7402 liver cancer cell line, Jurkat T cell leukemia cell line, HL60 acute myeloid leukemia cell line, Hela cervical cancer cell line, MCF-7 breast cancer cell line, PC3 prostate cancer cell line and SAOS-2 osteosarcoma cell line were made into single cell suspension, 180 μL of which was inoculated into 96-well culture plate, which was cultured overnight in CO2 incubator (37° C., 5% CO2, 95% air).
(§4) (2) Each of the spiro three-membered ring, spiro five membered ring peptide deformylase inhibitors was dissolved in DMSO, and was further formulated into drug solution with required different final concentration using corresponding cell culture medium. The drug solutions were added to the above cells respectively (20 μL/well), with the control group added with 1‰ DMSO, and cultured in a CO2 incubator for 72 hours.
(§5) (3) After incubation for 72 hours, the culture solution was decanted, and 100 μL of 1:10 diluted CCK-8 solution was added.
(§6) Wherein, in step (1), the concentration of the single cell suspension was 2000 cells/well.
(§7) Wherein, in step (2), HCT-116 cells were cultured in McCoy's 5A medium (containing 10% newborn bovine serum, 1% double antibody); A549 and PC3 cells were cultured in F12 medium (containing 10% newborn bovine serum, 1% double antibody); MGC-803, BEL-7402, SAOS-2, Jurkat and HL60 cells were cultured in 1640 medium (containing 10% newborn bovine serum, 1% double antibody); and MCF-7 and Hela cells were cultured in DMEM high glucose medium (containing 10% newborn bovine serum, 1% double antibody).

[12] = tested on: A549 lung cancer cell line; assay: CCK-8 proliferation inhibition; conditions: Homo sapiens, A549, 72 h, concentration of 30 μM
Excerpt: as §2, §3, §4, §5, §6, §7

[13] = tested on: MGC-803 gastric cancer cell line; assay: CCK-8 proliferation inhibition; conditions: Homo sapiens, MGC-803, 72 h, concentration of 30 μM
Excerpt: as §2, §3, §4, §5, §6, §7

O=CN(O)C[C@@H](CC1CCCC1)C(=O)N1CC2(CC2)C[C@H]1C(=O)NC1CC1 [Example 32, (S)-5-((R)-3-cyclopentyl-2-((N-hydroxyformamido)methyl)propionyl)-N-cyclopropyl-5-azaspiro[2.4]heptane-6-carboxamide]
4 µg/mL: MIC (anti-bacterial activity) ([5]; strain BCA 14-1) | MIC (anti-bacterial activity) ([5]; strain BCA 14-4) | MIC (anti-bacterial activity) ([6]; strain EFM 15-1) | MIC (anti-bacterial activity) ([6]; strain EFM 15-2) | MIC (anti-bacterial activity) ([6]; strain EFM 15-4) | MIC (anti-bacterial activity) ([6]; strain EFM 15-5) | MIC (anti-bacterial activity) ([6]; strain EFM 15-6)
2 µg/mL: MIC (anti-bacterial activity) ([1]; strain MRSE 15-2) | MIC (anti-bacterial activity) ([3]; strain MSSA 15-3) | MIC (anti-bacterial activity) ([3]; strain MSSA 15-6) | MIC (anti-bacterial activity) ([5]; strain BCA 14-5) | MIC (anti-bacterial activity) ([9]; strain MSSE 15-3) | MIC (anti-bacterial activity) ([9]; strain MSSE 15-4) | MIC (anti-bacterial activity) ([9]; strain MSSE 15-5) | MIC (anti-bacterial activity) ([9]; strain MSSE 15-6)
1 µg/mL: MIC (anti-bacterial activity) ([1]; strain MRSE 15-1) | MIC (anti-bacterial activity) ([2]; strain MRSA 15-1) | MIC (anti-bacterial activity) ([2]; strain MRSA 15-2) | MIC (anti-bacterial activity) ([2]; strain MRSA 15-3) | MIC (anti-bacterial activity) ([2]; strain MRSA 15-4) | MIC (anti-bacterial activity) ([3]; strain MSSA 15-4) | MIC (anti-bacterial activity) ([3]; strain MSSA 15-5) | Anti-bacterial activity (MIC), strain BCA 14-10 ([5]; clinical isolate BCA 14-10) | MIC (anti-bacterial activity) ([5]; strain BCA 14-7) | MIC (anti-bacterial activity) ([6]; strain EFM 15-3) | MIC (anti-bacterial activity) ([8]; strain SPN 16-2)
30%: inhibition at 30 µM ([10]; read-out: HCT116 inhibition rate/%)
14%: inhibition at 30 µM [12] | inhibition at 30 µM [13]
32 µg/mL: MIC (anti-bacterial activity) ([7]; strain ECO+ 15-1) | MIC (anti-bacterial activity) ([7]; strain ECO+ 15-4) | MIC (anti-bacterial activity) ([7]; strain ECO− 15-1)
> 32 µg/mL: MIC (anti-bacterial activity) ([7]; strain ECO+ 15-2) | MIC (anti-bacterial activity) ([7]; strain ECO+ 15-3) | MIC (anti-bacterial activity) ([7]; strain ECO− 15-2) | MIC (anti-bacterial activity) ([7]; strain ECO− 15-3) | MIC (anti-bacterial activity) ([7]; strain ECO− 15-4)
≥ 30%: inhibition at 30 µM ([10]; Table 5, read-out: Inhibition of proliferation, Colorectal cancer HCT116)
8 µg/mL: MIC (anti-bacterial activity) ([1]; strain MRSE 15-3) | MIC (anti-bacterial activity) ([1]; strain MRSE 15-7) | MIC (anti-bacterial activity) ([4]; strain EFA 15-1) | MIC (anti-bacterial activity) ([4]; strain EFA 15-2) | MIC (anti-bacterial activity) ([4]; strain EFA 15-3) | MIC (anti-bacterial activity) ([4]; strain EFA 15-4) | MIC (anti-bacterial activity) ([4]; strain EFA 15-5) | MIC (anti-bacterial activity) ([4]; strain EFA 15-6) | MIC (anti-bacterial activity) ([4]; strain EFA 15-9) | MIC (anti-bacterial activity) ([5]; strain BCA 14-6) | MIC (anti-bacterial activity) ([5]; strain BCA 14-8) | MIC (anti-bacterial activity) ([8]; strain SPN 16-4)
46%: inhibition at 30 µM [11]
